The source of these data is paper PMC8286840, “Identifying SARS-CoV-2 antiviral compounds by screening for small molecule inhibitors of Nsp3 papain-like protease” (Biochemical Journal, 2021).

For assay [1], the target named is T1, SARS-CoV-2 PLpro (nsp3 1564–1878) (Severe acute respiratory syndrome coronavirus 2, UniProt P0DTD1). Kind of assay: biochemical. As to conditions: read-out: % of control remaining. Set-up: FRET-quenched peptide (Pro3) cleavage by PLpro, 10 min pre-incubation, slope over 20 min, normalised to no-compound control.
For assay [2], the target named is T1, SARS-CoV-2 PLpro (nsp3 1564–1878). In words: biochemical. Set-up: FRET-quenched peptide (Pro3) cleavage by PLpro, 10 min pre-incubation, slope over 20 min, normalised to no-compound control. Conditions: read-out: % of control remaining. The source holds these as a separate data set.

Read-outs that look alike come from different tables or passages of the source.

On to `NC(=O)COc1c(F)cc(SCCNS(=O)(=O)c2ccccc2)cc1F`, for which the remaining activity at 3.75 µM in assay [1] (Well no.=5925, high concentration screen) was 93.7%. The remaining activity at 1.25 µM in assay [2] (Well no.=5925, low concentration screen) is 94.7%.
In the case of `CC(CN1c2ccccc2Sc2ccccc21)N(C)C` (stereo not shown), the remaining activity at 3.75 µM in assay [1] (Well no.=3844, high concentration screen) turned out to be 97.9%. Further, in assay [2] (Well no.=3844, low concentration screen), the remaining activity at 1.25 µM came to 101%.
Turning to `O=C1C[C@@H]2OCC=C3CN4CC[C@]56c7ccccc7N1[C@H]5[C@H]2[C@H]3C[C@H]46`, the remaining activity at 3.75 µM in assay [1] was 94.7%. Moreover, the remaining activity at 1.25 µM in assay [2] was 94.4%.
On to `CN(C/C=C/C#CC(C)(C)C)Cc1cccc2ccccc12`, for which the remaining activity at 3.75 µM in assay [1] (Well no.=3894, high concentration screen) worked out at 103%. In assay [2] (Well no.=3894, low concentration screen), the remaining activity at 1.25 µM turned out to be 102%.
On to `COc1ccc2c3c1O[C@H]1C[C@@H](O)C=C[C@@]31CCN(C)C2`, for which the remaining activity at 3.75 µM in assay [1] (Well no.=3677, high concentration screen) worked out at 103%. Also, the remaining activity at 1.25 µM in assay [2] (Well no.=3677, low concentration screen) stood at 98.7%.
`O=C(O)CN(CCN(CC(=O)O)Cc1ccccc1O)Cc1ccccc1O`: the remaining activity at 3.75 µM in assay [1] (Well no.=3846, high concentration screen) came to 103%. Moreover, the remaining activity at 1.25 µM in assay [2] (Well no.=3846, low concentration screen) turned out to be 106%.
Consider `O=c1ccn([C@@H]2O[C@@]3(CO)CO[C@@H]2[C@@H]3O)c(=O)[nH]1`, for which the remaining activity at 3.75 µM in assay [1] (Well no.=7864, high concentration screen) was determined as 92.8%. In addition, the remaining activity at 1.25 µM in assay [2] (Well no.=7864, low concentration screen) was determined as 98.5%.
Consider `CCOC(=O)[C@]12CC1/C(=N\O)c1ccccc1O2` (mixture of isomers) [CPCCOEt], for which the remaining activity at 3.75 µM in assay [1] (Well no.=286, high concentration screen) is 99.4%. The remaining activity at 1.25 µM in assay [2] (Well no.=286, low concentration screen) was 95.2%.
In the case of `S=C(S)OC1CC2CC1C1CCCC21` (mixture of isomers) [D-609 potassium], the remaining activity at 3.75 µM in assay [1] (Well no.=1374, high concentration screen) came out at 99%. Also, the remaining activity at 1.25 µM in assay [2] (Well no.=1374, low concentration screen) was determined as 99.3%.
Turning to `CCC(C)n1ncn(-c2ccc(N3CCN(c4ccc(OC[C@H]5CO[C@](Cn6cncn6)(c6ccc(Cl)cc6Cl)O5)cc4)CC3)cc2)c1=O` (mixture of isomers) [Itraconazole], in assay [1] (Well no.=2228, high concentration screen), the remaining activity at 3.75 µM stood at 94.2%. Further, the remaining activity at 1.25 µM in assay [2] (Well no.=2228, low concentration screen) amounted to 96.3%.
`OC[C@H]1O[C@@H](O[C@@H]2[C@@H](CO)OC(O)(CO)[C@H]2O)[C@H](O)[C@@H](O)[C@H]1O` (mixture of isomers) [Lactulose]: the remaining activity at 3.75 µM in assay [1] (Well no.=8140, high concentration screen) is 97.6%. Besides, the remaining activity at 1.25 µM in assay [2] (Well no.=8140, low concentration screen) came to 95.7%.
For `CCCCC(C)(O)C/C=C/[C@H]1[C@H](O)CC(=O)[C@@H]1CCCCCCC(=O)OC` (mixture of isomers) [Misoprostol], the remaining activity at 3.75 µM stood at 98% in assay [1] (Well no.=2194, high concentration screen) and 103% in assay [1] (Well no.=7473, high concentration screen). For the same molecule, the remaining activity at 1.25 µM in assay [2] (Well no.=2194, low concentration screen) was found to be 99.5%; in assay [2] (Well no.=7473, low concentration screen), 104%.
As to `CCCN(CCC)C1CCc2ccc(O)cc2C1` (racemic), the remaining activity at 3.75 µM in assay [1] (Well no.=662, high concentration screen) came to 94.8%. Moreover, the remaining activity at 1.25 µM in assay [2] (Well no.=662, low concentration screen) came out at 94.1%.
Regarding `CC(N)c1cccc(Cl)c1Cl` (racemic), the remaining activity at 3.75 µM in assay [1] (Well no.=734, high concentration screen) is 94.8%. Besides, the remaining activity at 1.25 µM in assay [2] (Well no.=734, low concentration screen) came to 92.1%.
With `NC(CCCCCP(=O)(O)O)C(=O)O` (racemic), the remaining activity at 3.75 µM in assay [1] (Well no.=17, high concentration screen) was 97.5%. The remaining activity at 1.25 µM in assay [2] (Well no.=17, low concentration screen) amounted to 100%.
Regarding `NC1CCN(O)C1=O` (racemic), the remaining activity at 3.75 µM in assay [1] (Well no.=250, high concentration screen) turned out to be 103%. The remaining activity at 1.25 µM in assay [2] (Well no.=250, low concentration screen) came to 101%.
As to `C=CCN1CCc2c(cc(O)c(O)c2Cl)C(c2ccccc2)C1` (racemic), in assay [1] (Well no.=725, high concentration screen), the remaining activity at 3.75 µM was determined as 96.5%. For the same molecule, the remaining activity at 1.25 µM in assay [2] (Well no.=725, low concentration screen) was 96.8%.
With `CC1CCN=C(N)S1` (racemic), in assay [1] (Well no.=12, high concentration screen), the remaining activity at 3.75 µM is 106%. The remaining activity at 1.25 µM in assay [2] (Well no.=12, low concentration screen) is 105%.
Consider `CN(C)CCC(c1ccc(Br)cc1)c1ccccn1` (racemic), for which the remaining activity at 3.75 µM in assay [1] (Well no.=219, high concentration screen) is 97.9%. Further, in assay [2] (Well no.=219, low concentration screen), the remaining activity at 1.25 µM stood at 97.7%.
Take `Cc1o[nH]c(=O)c1CC(N)C(=O)O` (racemic): the remaining activity at 3.75 µM in assay [1] (Well no.=508, high concentration screen) was found to be 100%. The remaining activity at 1.25 µM in assay [2] (Well no.=508, low concentration screen) stood at 99.4%.
As for `NC(CCP(=O)(O)O)C(=O)O` (racemic), the remaining activity at 3.75 µM in assay [1] (Well no.=297, high concentration screen) was found to be 101%. For the same molecule, in assay [2] (Well no.=297, low concentration screen), the remaining activity at 1.25 µM was 102%.
As to `COc1cc(C(O)C(=O)O)ccc1O` (racemic), the remaining activity at 3.75 µM in assay [1] (Well no.=606, high concentration screen) came to 97.2%. Moreover, the remaining activity at 1.25 µM in assay [2] (Well no.=606, low concentration screen) was found to be 96%.
In the case of `CCC1(c2ccc(N)cc2)CCC(=O)NC1=O` (racemic), in assay [1] (Well no.=202, high concentration screen), the remaining activity at 3.75 µM was determined as 102%. In assay [2] (Well no.=202, low concentration screen), the remaining activity at 1.25 µM is 100%.
As for `CN1CCN(C2Cc3ccccc3Sc3ccc(Cl)cc32)CC1` (racemic), in assay [1] (Well no.=804, high concentration screen), the remaining activity at 3.75 µM was 105%. Further, the remaining activity at 1.25 µM in assay [2] (Well no.=804, low concentration screen) stood at 104%.
As to `CC(C)(C)NCC(O)COc1cccc2[nH]c(=O)[nH]c12` (racemic), the remaining activity at 3.75 µM in assay [1] (Well no.=629, high concentration screen) was 101%. Moreover, the remaining activity at 1.25 µM in assay [2] (Well no.=629, low concentration screen) was 101%.
On to `N[C@H](C(=O)O)c1cccc(O)c1` (racemic), for which the remaining activity at 3.75 µM in assay [1] (Well no.=476, high concentration screen) was 97%. For the same molecule, the remaining activity at 1.25 µM in assay [2] (Well no.=476, low concentration screen) stood at 101%.
`C[C@H](Nc1ccc(Cl)cc1)C(=O)O` (racemic): in assay [1] (Well no.=230, high concentration screen), the remaining activity at 3.75 µM was 97.1%. In addition, in assay [2] (Well no.=230, low concentration screen), the remaining activity at 1.25 µM was 95.2%.
With `CNC[C@H](O)c1ccc(O)c(O)c1` (racemic), the remaining activity at 3.75 µM in assay [1] (Well no.=605, high concentration screen) came to 99.2%. Moreover, in assay [2] (Well no.=605, low concentration screen), the remaining activity at 1.25 µM stood at 99.5%.
Take `NC(CCCP(=O)(O)O)C(=O)O` (racemic): the remaining activity at 3.75 µM in assay [1] (Well no.=65, high concentration screen) came out at 97.5%. Further, the remaining activity at 1.25 µM in assay [2] (Well no.=65, low concentration screen) amounted to 103%.
For the molecule `CC(C)(C)[C@]1(O)CCN2C[C@H]3c4ccccc4CCc4cccc(c43)[C@@H]2C1` (racemic), the remaining activity at 3.75 µM in assay [1] (Well no.=135, high concentration screen) was 102%. Further, in assay [2] (Well no.=135, low concentration screen), the remaining activity at 1.25 µM amounted to 101%.
In the case of `COc1cc(CC(C)N)c(OC)cc1I` (racemic), the remaining activity at 3.75 µM in assay [1] (Well no.=686, high concentration screen) amounted to 92.3%. Also, the remaining activity at 1.25 µM in assay [2] (Well no.=686, low concentration screen) was 94.3%.
Consider `O=C(O)C1CCCNC1` (racemic), for which the remaining activity at 3.75 µM in assay [1] (Well no.=195, high concentration screen) worked out at 97.6%. For the same molecule, the remaining activity at 1.25 µM in assay [2] (Well no.=195, low concentration screen) amounted to 102%.
On to `NCC(CC(=O)O)c1ccc(Cl)cc1` (racemic), for which the remaining activity at 3.75 µM in assay [1] (Well no.=31, high concentration screen) was determined as 97.2%. Moreover, in assay [2] (Well no.=31, low concentration screen), the remaining activity at 1.25 µM came to 96.2%.
Turning to `CCCN(CCC)C1CCc2cccc(O)c2C1` (racemic), the remaining activity at 3.75 µM in assay [1] (Well no.=470, high concentration screen) came to 98.3%. In assay [2] (Well no.=470, low concentration screen), the remaining activity at 1.25 µM was determined as 99.9%.
For the molecule `COC(=O)C1=C(C)NC(C)=C([N+](=O)[O-])C1c1ccccc1C(F)(F)F` (racemic), the remaining activity at 3.75 µM in assay [1] (Well no.=133, high concentration screen) was 105%. The remaining activity at 1.25 µM in assay [2] (Well no.=133, low concentration screen) is 108%.
On to `NC(CP(=O)(O)O)C(=O)O` (racemic), for which, in assay [1] (Well no.=303, high concentration screen), the remaining activity at 3.75 µM was found to be 100%. In addition, in assay [2] (Well no.=303, low concentration screen), the remaining activity at 1.25 µM worked out at 99.2%.
On to `CC(C)NCC(O)COc1ccc(CC(N)=O)cc1` (racemic), for which the remaining activity at 3.75 µM in assay [1] (Well no.=196, high concentration screen) was found to be 99.1%. For the same molecule, the remaining activity at 1.25 µM in assay [2] (Well no.=196, low concentration screen) was determined as 96.7%.
